# Patent US20220370416A1, “COMPOUNDS AND METHODS FOR TARGETED DEGRADATION OF KRAS” (Arvinas Operations, Inc., priority 2020, published 2022)
# Legend:
# KRAS^G12C = KRAS^G12C (Homo sapiens, UniProt P01116, G12C); test: KRAS^G12C degradation in a panel of 5 KRAS^G12C cancer cell lines (immunoblot); assay type: cell-based; set-up: MRTX849-VHL bifunctional compounds engage and degrade endogenous KRAS^G12C in NCI-H2030 cells; endogenous in cells; host or cells: NCI-H2030, NCI-H358, MIA PaCa-2, SW1573, NCI-H23; conditions: read-out: DMax values across cell lines
# Experimental: NCI-H2030 (CRL-5914), MIA PaCa-2 (CRL-1420), NCI-H23 (CRL-5800), NCI-H358 (CRL-5807), and HCT-116 (CCL-247) cells were obtained from ATCC, expanded immediately, and frozen down. Vials were thawed and used within 20 passages. SW1573 cells were a gift from Arvinas and were handled in the same manner. NCI-H2030, NCI-H23, and NCI-H358 were cultured in RPMI (ATCC30-2001) supplemented with 10% FBS (Biological Industries; cat. no. S1480) and 1% Penicillin-Streptomycin (ThermoFisher; cat. no. 15140122). HCT-116 cells were maintained in high glucose DMEM (ThermoFisher; cat. no. 11965084) supplemented as above. […]
# Cell lysates were clarified at 21000×g for 15 mins at 4° C. Protein levels were quantified using a 50:1 mixture of bicinchoninic acid solution (Millipore Sigma; cat. no. B9643) and 4% (w/v) copper(II) sulfate solution (Millipore Sigma; cat. no. C2284) incubated at 37° C. for 30 mins. Absorbance values at 560 nm were read on an EnVision 2101 Multilabel Reader (PerkinElmer). […]
# Band intensities were quantified using BioRad's Image Lab Software. Total KRAS levels were examined by quantifying levels of both conjugated KRAS^G12C and unbound KRAS (wt or mutant) using an analysis box that spanned the two bands. This same sized box was used to quantify unbound KRAS in DMSO treated samples to account for background, except for LC-2 Epimer in FIGS. 6A and 6B. […]
# Experimental for pErk: The ability of LC-2 to modulate Erk signaling was investigated in NCI-H2030 and NCI-H23 cells during a 24 hour dose response.
# Signaling kinetics were monitored during a 24 hour time course in MIA PaCa2, NCI-H23, and SW1573 cells treated with 2.5 μM LC-2.
# NCI-H2030 (CRL-5914), MIA PaCa-2 (CRL-1420), NCI-H23 (CRL-5800), NCI-H358 (CRL-5807), and HCT-116 (CCL-247) cells were obtained from ATCC, expanded immediately, and frozen down. Vials were thawed and used within 20 passages. SW1573 cells were a gift from Arvinas and were handled in the same manner. NCI-H2030, NCI-H23, and NCI-H358 were cultured in RPMI (ATCC30-2001) supplemented with 10% FBS (Biological Industries; cat. no. S1480) and 1% Penicillin-Streptomycin (ThermoFisher; cat. no. 15140122). HCT-116 cells were maintained in high glucose DMEM (ThermoFisher; cat. no. 11965084) supplemented as above. MIA PaCa-2 cells were cultured in high glucose DMEM supplemented with 10% FBS, 2.5% horse serum (ThermoFisher; cat. no. 26050-088; lot 2109875), and 1% Penicillin-Streptomycin. SW1573 cells were maintained in DMEM/F12 Nutrient Mix with GlutaMAX supplement (ThermoFisher; cat. no. 10565018) with 10% FBS and 1% Penicillin-Streptomycin added. DPBS (ThermoFisher; cat. no. 14190250) was used to wash cells and 0.25% Trypsin-EDTA (ThermoFisher; cat. no. 252000-056) was used to detach cells for passaging. […] The VHL ligand was generously provided by Arvinas.
# Between 2.5×10^5 and 6.0×10^5 cells were seeded into 6-well plates (Corning; cat. no. 353046). The next day, media was removed and cells were treated with 2.5 μM LC-2 for 1, 2, 4, 8, 12, or 24 hours. […]
# Sequence of KRAS^G12C (P01116 1-188 isoform P01116-2 G12C): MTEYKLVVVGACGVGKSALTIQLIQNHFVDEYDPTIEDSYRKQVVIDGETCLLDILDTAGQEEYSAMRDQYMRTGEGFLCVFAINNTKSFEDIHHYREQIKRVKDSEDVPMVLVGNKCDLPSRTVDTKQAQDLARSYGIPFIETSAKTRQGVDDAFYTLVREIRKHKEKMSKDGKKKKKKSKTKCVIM
compound,measurement,setting,value
"C=C(F)C(=O)N1CCN(c2nc(OC[C@@H]3CCCN3CCCOCCC(=O)N[C@H](C(=O)N3C[C@H](O)C[C@H]3C(=O)NCc3ccc(-c4scnc4C)cc3)C(C)(C)C)nc3c2CCN(c2cccc4cccc(Cl)c24)C3)C[C@@H]1CC#N [LC-2, (2S,4R)-1-((S)-2-(3-(3-((S)-2-(((7-(8-chloronaphthalen-1-yl)-4-((S)-3-(cyanomethyl)-4-(2-fluoroacryloyl)piperazin-1-yl)-5,6,7,8-tetrahydropyrido[3,4-d]pyrimidin-2-yl)oxy)methyl)pyrrolidin-1-yl)propoxy)propanamido)-3,3-dimethylbutanoyl)-4-hydroxy-N-(4-(4-methylthiazol-5-yl)benzyl)pyrrolidine-2-carboxamide]",Dmax,KRAS^G12C,75 to 90%
same,pErk,"pErk; NCI-H23, 2.5 μM LC-2, 6 and 24 hours",suppressed
same,pErk signaling,"pErk; NCI-H23, 24 hour dose response",dose-dependent decrease in pErk
same,total Erk levels,"pErk; NCI-H23, 24 hour dose response",elevated in a dose-dependent manner
